US12391672B2, “Solid forms comprising (S)-4-(4-(4-(((2-(2,6-dioxopiperidin-3-yl)-1-oxoisoindolin-4-yl)oxy)methyl)benzyl)piperazin-1-yl)-3-fluorobenzonitrile and salts thereof, and compositions comprising and methods of using the same” (Celgene Corporation, priority 2019, dated 2025)
“And” between values parts separate entries of the source, which are not always exact repeats. Equal entries are not always repeated.

Key:
[1] = Solubility determination (15 minutes at room temperature, HPLC); assay type: physicochemical; conditions: fifteen minutes
Description: 1 mL of buffer or of ultrapure (resistivity≥18.2 Mf cm) water was added to a pre-weighed, approximately twenty milligram aliquot of the substance to be measured. The resulting suspensions were stirred for 15 minutes at room temperature with magnetic stirrers. The suspensions were centrifuged and filtered through Millipore 0.2 μm PVDF filters, and the concentration of each filtrate (i.e., saturated solution) was determined using a general HPLC method. The pH of each saturated solution was measured with a Metrohm 713 pH meter.
To assess whether Form K and Form K′ are likely to have different bioavailabilities, comparative solubility measurements were carried out in physiologically relevant media. Samples of Form K and Form K′ were separately equilibrated in pure water, pH 2.0 buffer, and pH 6.8 buffer for fifteen minutes, and the solids were then separated from the solvents. The concentration of the compound in the filtrate (i.e., the solubility) was assessed in each case, and the solid residues were also monitored by powder X-ray diffraction. All six solid residues correspond to Form K, confirming that Form K′ rapidly incorporates water into its lattice when suspended in an aqueous environment even when the solubility is low. While the solubilities in pure water and at pH 6.8 were below the limit of quantitation of 0.0001 mg/mL, the solubilities at pH 2.0 could be measured. […] Thus, the bioavailabilities of the two forms are expected to be similar, and precise control of the water content (and, thereby, the solid form) is presumably not necessary from a scientific point of view. Given that the critical water activity is in the range aH2O=0.11-0.17, the hydrated Form K is likely to be the more easily stabilized of the two forms under ambient laboratory conditions.

[2] = Storage at controlled relative humidities (Form K / Form K′); assay type: physicochemical
Excerpt: It was noticed that after Form K was dried, the XRPD peaks of Form K shifted to a higher value and the resulting XRPD pattern is called Form K′. To further understand the relationships between the two forms, free base Form K and Form K′ were placed on XRPD sample holders and stored in a closed Jars with saturated salt solutions for RH controls at ambient temperature, respectively. […] The XRPD diffractograms of the samples after 2-day storage are presented in FIG. 132 and FIG. 133, respectively. […] Since the peaks of Form K shifted to higher 2-theta value as Form K loses water molecules to Form K′, Form K and Form K′ are on a continuum.

N#Cc1ccc(N2CCN(Cc3ccc(COc4cccc5c4CN([C@H]4CCC(=O)NC4=O)C5=O)cc3)CC2)c(F)c1.O [Form K of a free base of Compound 1]
solubility at pH 2.0 ([1]; pH 2.0 buffer): 0.96 mg/mL | solid residue after solubility measurement (powder X-ray diffraction) ([1]; pure water, pH 2.0 buffer and pH 6.8 buffer): Form K | form conversion on storage (XRPD) ([2]; 11% RH, ambient temperature): converts to K′ | critical water activity range for interconversion of Form K and Form K′ ([2]; aH2O): 0.11-0.22 and 0.11-0.17 | PXRD result after storage ([2]; stored at 17% r.h. and r.t. for 5.5 d): Form K
